Holding throughout (type): in vivo
In one data set the test system is Abutilon theophrasti. Description: Test Example 5: herbicidal effect by foliage application, plastic box (symbol M). The note with it: 320 g/ha, 3 weeks after application. In outline:
(§1)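 Greenhouse foliar test: seedlings at 14 days, grown 25° C. to 30° C. in sterilized diluvial soil; compound applied as an aqueous dilution of an emulsion; response read 3 weeks after spraying.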

The next data set deals with Apera spica-venti. In words: Test Example 4: herbicidal effect by soil treatment (symbol L). The conditions noted are these: application herbicide amount 320 g/ha. In outline: (§2)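 Seeds were sown in sterilized diluvial soil, covered with about 1.5 cm of soil, and the soil surface was sprayed with a water-diluted emulsion of the compound at a predetermined rate. Plants grew in a greenhouse at 25° C. to 30° C.; effects were scored visually 3 weeks after application.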

The subject of the next data set is Amaranthus retroflexus. Description: Test Example 5: herbicidal effect by foliage application, plastic box (symbol N). The note with it: 320 g/ha, 3 weeks after application. In outline:
as §1

The subject of a further data set is Setaria viridis. Description: Test Example 4: herbicidal effect by soil treatment (symbol G). The conditions noted are these: application herbicide amount 320 g/ha. In outline:
as §2

For a further data set, the system named is rapeseed. Description: Test Example 5: effect on crop by foliage application, plastic box (symbol g). The note with it: 320 g/ha, 3 weeks after application. In a few lines: (§3)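 Plants were raised from seed in a greenhouse (25° C. to 30° C.) after sowing in a plastic box of sterilized diluvial soil.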
In another data set the test system is Lolium multiflorum Lam. Description: Test Example 5: herbicidal effect by foliage application, plastic box (symbol K). The conditions noted are these: 320 g/ha, 3 weeks after application. In outline: as §1
The test system of data set [1] is Echinochloa crus-galli var. crus-galli. In words: Test Example 5: herbicidal effect by foliage application, plastic box (symbol H). The conditions noted are these: 320 g/ha, 3 weeks after application. In outline:
as §1

A further data set deals with Avena fatua. In words: Test Example 4: herbicidal effect by soil treatment (symbol I). The conditions noted are these: application herbicide amount 320 g/ha. In a few lines:
as §2

Data set [2] has as its system Chenopodium album. Description: Test Example 5: herbicidal effect by foliage application, plastic box (symbol O). The conditions noted are these: 320 g/ha, 3 weeks after application. In outline: as §1
The subject of data set [3] is Stellaria media. Description: Test Example 5: herbicidal effect by foliage application, plastic box (symbol P). The conditions noted are these: 320 g/ha, 3 weeks after application. In a few lines: as §1
A further data set concerns Alopecurus myosuroides. In words: Test Example 4: herbicidal effect by soil treatment (symbol J). The conditions noted are these: application herbicide amount 320 g/ha. In outline:
as §2

The test system of another data set is Galium spurium. Description: Test Example 4: herbicidal effect by soil treatment (symbol Q). The note with it: application herbicide amount 320 g/ha. In a few lines: as §2
For a further data set, the system named is corn. In words: Test Example 5: effect on crop by foliage application, plastic box (symbol c). The conditions noted are these: 320 g/ha, 3 weeks after application. In outline: as §3
For the next data set, the system named is transplanted rice plant. Description: Test Example 1: effect on crop, application before weed generation in submerged conditions (symbol a). The conditions noted are these: application herbicide amount 320 g/ha. In outline: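 Rice at 2.5 leaf stage transplanted into submerged soil (4 cm depth) sown with three weed species; herbicide applied before weed emergence.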

The test system of the next data set is Leptochloa chinensis. In words: Test Example 3: herbicidal effect by foliage application, Wagner pot (symbol D). The note with it: application herbicide amount 320 g/ha. In a few lines:
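The compound, formulated as an emulsion and diluted with water to a predetermined rate, is applied uniformly to leaves of two-week-old seedlings growing in submerged alluvial soil at 25–30 °C. Rice is included. Each plant is assessed 3 weeks later using defined criteria.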

For the next data set, the system named is Monochoria vaginalis. Description: Test Example 1: herbicidal activity, application before weed generation in submerged conditions (symbol C). The conditions noted are these: application herbicide amount 320 g/ha. In outline: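 Application before weed emergence: an aqueous dilution of the emulsion formulation was poured onto the surface of 4 cm-deep floodwater on the day of sowing. Effect was judged after 3 weeks (greenhouse, 25–30 °C).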

Data set [4] deals with Stellaria media. Description: Test Example 4: herbicidal effect by soil treatment (symbol P). The conditions noted are these: application herbicide amount 320 g/ha. In outline: as §2
Data set [5] has as its system Chenopodium album. Description: Test Example 4: herbicidal effect by soil treatment (symbol O). The conditions noted are these: application herbicide amount 320 g/ha. In outline:
as §2

Another data set deals with Veronica persica. In words: Test Example 4: herbicidal effect by soil treatment (symbol R). The conditions noted are these: application herbicide amount 320 g/ha. In a few lines:
as §2

`CON=C(C)CC1CC(OC(=O)COc2ccccc2)=C(c2c(C)cc(C)cc2C)C1=O` (stereo not drawn) [1-043]: in the data set with Abutilon theophrasti, the “M: Abutilon theophrasti, herbicidal effect grade” value (shortened to “M: Abutilon theophrasti”) is 4 (Herbicidal ratio of 70% or higher and lower than 90%). Besides, the “L (Apera spica-venti) herbicidal effect grade” value in the data set with Apera spica-venti is listed as 5 (Herbicidal ratio of 90% or more (almost completely withered)). In addition, in the data set with Amaranthus retroflexus, the “N: Amaranthus retroflexus, herbicidal effect grade” value (“N: Amaranthus retroflexus” for short) was 3 (Herbicidal ratio of 40% or higher and lower than 70%). For the same compound, the “G (Setaria viridis) herbicidal effect grade” value in the data set on Setaria viridis is reported as 5 (Herbicidal ratio of 90% or more (almost completely withered)). Moreover, the “g: rapeseed, effect on crop grade” value in the data set with rapeseed is 4 (Herbicidal ratio of 70% or higher and lower than 90%). Moreover, in the data set with Lolium multiflorum Lam., the “K: Lolium multiflorum Lam., herbicidal effect grade” value is recorded as 5 (Herbicidal ratio of 90% or more (almost completely withered)). For the same compound, the “H: Echinochloa crus-galli var. crus-galli, herbicidal effect grade” value in data set [1] is given as 5 (Herbicidal ratio of 90% or more (almost completely withered)). For the same compound, the “I (Avena fatua) herbicidal effect grade” value with Avena fatua is 4 (Herbicidal ratio of 70% or higher and lower than 90%). Moreover, the “O: Chenopodium album, herbicidal effect grade” value with Chenopodium album [2] was 2 (Herbicidal ratio of 20% or higher and lower than 40%). In addition, the “P: Stellaria media, herbicidal effect grade” value in the data set on Stellaria media [3] is 4 (Herbicidal ratio of 70% or higher and lower than 90%). For the same compound, the “J (Alopecurus myosuroides) herbicidal effect grade” value in the data set on Alopecurus myosuroides is 5 (Herbicidal ratio of 90% or more (almost completely withered)). Moreover, the “Q (Galium spurium) herbicidal effect grade” value in the data set on Galium spurium is reported as 0 (Herbicidal ratio of 5% or lower (almost no effect)). In addition, the “c: corn, effect on crop grade” value in the data set with corn is recorded as 5 (Herbicidal ratio of 90% or more (almost completely withered)). The “Effect grade on crop, a: transplanted rice plant” value (from here on “Effect grade on crop”) with transplanted rice plant is recorded as 5 (Herbicidal ratio of 90% or more (almost completely withered)). Further, in the data set with Leptochloa chinensis, the “herbicidal effect on D (Leptochloa chinensis), grade 0-5” value (“herbicidal effect on D” for short) was 5 (Herbicidal ratio of 90% or more (almost completely withered)). The “Herbicidal effect grade, C: Monochoria vaginalis” value (shortened to “Herbicidal effect grade, C”) in the data set on Monochoria vaginalis is 2 (Herbicidal ratio of 20% or higher and lower than 40%).

As for `CON=C(C)CC1CC(OC(=O)CCC2CCCCC2)=C(c2c(C)cc(C)cc2C)C1=O` (stereo not drawn) [1-035], in the data set on Abutilon theophrasti, the “M: Abutilon theophrasti” value was 4 (Herbicidal ratio of 70% or higher and lower than 90%). For the same compound, the “L (Apera spica-venti) herbicidal effect grade” value in the data set on Apera spica-venti is on record as 5 (Herbicidal ratio of 90% or more (almost completely withered)). Moreover, in the data set with Amaranthus retroflexus, the “N: Amaranthus retroflexus” value was 3 (Herbicidal ratio of 40% or higher and lower than 70%). Further, the “G (Setaria viridis) herbicidal effect grade” value with Setaria viridis was 5 (Herbicidal ratio of 90% or more (almost completely withered)). Besides, the “g: rapeseed, effect on crop grade” value with rapeseed is 4 (Herbicidal ratio of 70% or higher and lower than 90%). For the same compound, in the data set on Lolium multiflorum Lam., the “K: Lolium multiflorum Lam., herbicidal effect grade” value was 5 (Herbicidal ratio of 90% or more (almost completely withered)). For the same compound, the “H: Echinochloa crus-galli var. crus-galli, herbicidal effect grade” value in data set [1] is recorded as 5 (Herbicidal ratio of 90% or more (almost completely withered)). In addition, the “I (Avena fatua) herbicidal effect grade” value in the data set with Avena fatua is 4 (Herbicidal ratio of 70% or higher and lower than 90%). Moreover, the “J (Alopecurus myosuroides) herbicidal effect grade” value in the data set with Alopecurus myosuroides is on record as 5 (Herbicidal ratio of 90% or more (almost completely withered)). Also, the “Q (Galium spurium) herbicidal effect grade” value in the data set with Galium spurium is given as 0 (Herbicidal ratio of 5% or lower (almost no effect)). Further, the “c: corn, effect on crop grade” value in the data set on corn was 4 (Herbicidal ratio of 70% or higher and lower than 90%). Besides, the “herbicidal effect on D” value with Leptochloa chinensis is listed as 5 (Herbicidal ratio of 90% or more (almost completely withered)). Further, the “Herbicidal effect grade, C” value with Monochoria vaginalis is 2 (Herbicidal ratio of 20% or higher and lower than 40%).

Regarding `CC(CC1CC(O)=C(c2c(C)cc(C)cc2C)C1=O)=NOCC(C)O` (stereo not drawn) [1-027], the “M: Abutilon theophrasti” value with Abutilon theophrasti is 2 (Herbicidal ratio of 20% or higher and lower than 40%). Also, the “L (Apera spica-venti) herbicidal effect grade” value with Apera spica-venti is listed as 5 (Herbicidal ratio of 90% or more (almost completely withered)). For the same compound, in the data set on Amaranthus retroflexus, the “N: Amaranthus retroflexus” value is 0 (Herbicidal ratio of 5% or lower (almost no effect)). Further, in the data set with Setaria viridis, the “G (Setaria viridis) herbicidal effect grade” value is 3 (Herbicidal ratio of 40% or higher and lower than 70%). Moreover, the “g: rapeseed, effect on crop grade” value with rapeseed was 4 (Herbicidal ratio of 70% or higher and lower than 90%). Besides, in the data set on Lolium multiflorum Lam., the “K: Lolium multiflorum Lam., herbicidal effect grade” value is 5 (Herbicidal ratio of 90% or more (almost completely withered)). Further, the “H: Echinochloa crus-galli var. crus-galli, herbicidal effect grade” value in data set [1] was 5 (Herbicidal ratio of 90% or more (almost completely withered)). Besides, in the data set on Avena fatua, the “I (Avena fatua) herbicidal effect grade” value is 4 (Herbicidal ratio of 70% or higher and lower than 90%). Moreover, in the data set on Chenopodium album [2], the “O: Chenopodium album, herbicidal effect grade” value is 1 (Herbicidal ratio of 5% or higher and lower than 20%). For the same compound, the “P: Stellaria media, herbicidal effect grade” value with Stellaria media [3] was 1 (Herbicidal ratio of 5% or higher and lower than 20%). Further, the “J (Alopecurus myosuroides) herbicidal effect grade” value with Alopecurus myosuroides is 5 (Herbicidal ratio of 90% or more (almost completely withered)). For the same compound, the “Q (Galium spurium) herbicidal effect grade” value in the data set with Galium spurium is 0 (Herbicidal ratio of 5% or lower (almost no effect)). For the same compound, the “c: corn, effect on crop grade” value in the data set with corn is 5 (Herbicidal ratio of 90% or more (almost completely withered)). In addition, the “Effect grade on crop” value with transplanted rice plant is 4 (Herbicidal ratio of 70% or higher and lower than 90%). For the same compound, the “herbicidal effect on D” value with Leptochloa chinensis was 5 (Herbicidal ratio of 90% or more (almost completely withered)). The “Herbicidal effect grade, C” value in the data set on Monochoria vaginalis was 3 (Herbicidal ratio of 40% or higher and lower than 70%).

On to `CON=C(CC1CC(O)=C(c2c(C)cc(Br)cc2C)C1=O)C1CC1` (stereo not drawn) [9-002], for which the “Herbicidal effect grade, P: Stellaria media” value in the data set on Stellaria media [4] is given as 0 (Herbicidal ratio of 5% or lower (almost no effect)). Also, the “M: Abutilon theophrasti” value with Abutilon theophrasti was 4 (Herbicidal ratio of 70% or higher and lower than 90%). In the data set on Apera spica-venti, the “Herbicidal effect grade, L: Apera spica-venti” value is reported as 5 (Herbicidal ratio of 90% or more (almost completely withered)). Besides, the “Herbicidal effect grade, O: Chenopodium album” value in the data set with Chenopodium album [5] was 0 (Herbicidal ratio of 5% or lower (almost no effect)). For the same compound, the “N: Amaranthus retroflexus” value with Amaranthus retroflexus is 3 (Herbicidal ratio of 40% or higher and lower than 70%). Moreover, the “Herbicidal effect grade, G: Setaria viridis” value in the data set with Setaria viridis was 5 (Herbicidal ratio of 90% or more (almost completely withered)). Besides, the “g: rapeseed, effect on crop grade” value with rapeseed was 4 (Herbicidal ratio of 70% or higher and lower than 90%). Further, the “K: Lolium multiflorum Lam., herbicidal effect grade” value with Lolium multiflorum Lam. is 5 (Herbicidal ratio of 90% or more (almost completely withered)). Further, in data set [1], the “H: Echinochloa crus-galli var. crus-galli, herbicidal effect grade” value is given as 5 (Herbicidal ratio of 90% or more (almost completely withered)). For the same compound, in the data set with Avena fatua, the “Herbicidal effect grade, I: Avena fatua” value was 3 (Herbicidal ratio of 40% or higher and lower than 70%). In addition, the “O: Chenopodium album, herbicidal effect grade” value in the data set on Chenopodium album [2] is listed as 0 (Herbicidal ratio of 5% or lower (almost no effect)). For the same compound, in the data set with Stellaria media [3], the “P: Stellaria media, herbicidal effect grade” value was 0 (Herbicidal ratio of 5% or lower (almost no effect)). The “Herbicidal effect grade, J: Alopecurus myosuroides” value in the data set on Alopecurus myosuroides is recorded as 5 (Herbicidal ratio of 90% or more (almost completely withered)). In addition, the “c: corn, effect on crop grade” value in the data set with corn was 5 (Herbicidal ratio of 90% or more (almost completely withered)). Moreover, in the data set on transplanted rice plant, the “Effect grade on crop” value is on record as 5 (Herbicidal ratio of 90% or more (almost completely withered)). The “D (Leptochloa chinensis) herbicidal effect grade” value in the data set with Leptochloa chinensis (Table 24) is given as 5 (Herbicidal ratio of 90% or more (almost completely withered)). Besides, the “Herbicidal effect grade, C” value with Monochoria vaginalis is on record as 0 (Herbicidal ratio of 5% or lower (almost no effect)). Besides, in the data set on Veronica persica, the “Herbicidal effect grade, R: Veronica persica” value is reported as 0 (Herbicidal ratio of 5% or lower (almost no effect)).

Source of the values: patent publication US11000033B2, “Ketone or oxime compound, and herbicide” (NISSAN CHEMICAL CORPORATION, priority 2014, dated 2021).
